Data published in patent US20020091133A1, “Use of 9-substituted purine analogues and other molecules to stimulate neurogenesis” (Eve M. Taylor, priority 2000, published 2002).

Assays:
[1] = tested on: neural stem and progenitor cells in the dentate gyrus; experiment: Neural stem and progenitor cell differentiation: BrdU/NeuN/S100β colocalization in dentate gyrus 42 days after single AIT-082 dose; assay type: in vivo; settings: adult mice
Description: AIT-082 was administered intraperitoneally to adult mice (5-7 per group) at a dose of 1 -100 mg/kg. Saline was given as a negative control. Starting two hours after AIT-082 administration, animals received four intraperitoneal injections of bromodeoxyuridine (BrdU; 50 mg/kg each) at 3 hr intervals. Animals were perfused at 42 days after the AIT-082 administration. During these 42 days newly born neural stem cells have enough time to differentiate into neurons, astrocytes and other brain cells. This treatment regimen is outlined in FIG. 3.
Animals were perfused, brains treated and sections prepared as described for Example 1.
Every sixth section through the rostral-caudal extent of the hippocampus was immunostained with rat anti-BrdU paired with a Alexa 568 goat anti-rat IgG (red), mouse anti-NeuN (a neuronal marker) paired with Alexa 488 goat anti-mouse IgG (green), and rabbit anti-S100β (an astrocytes marker) paired with Alexa 647 goat anti-rabbit IgG (blue). Stereological techniques were used to estimate the total number of BrdU-positive nuclei in the dentate gyrus and the number of BrdU-positive cells that were also positive for NeuN (i.e indicating newly formed neurons) or S100β (indicating newly formed astrocytes). Cells that were BrdU-positive and not positive for either NeuN or S100β were labeled “other”. […]

[2] = tested on: neural stem and progenitor cells in the dentate gyrus; experiment: Neural stem and progenitor cell proliferation: BrdU labeling in dentate gyrus 24 hr after single AIT-082 dose; assay type: in vivo; settings: adult mice, single intraperitoneal dose 0.1-10 mg/kg, perfused at 24 hr; normalized to saline control, two experiments combined (FIG. 2)
Description: In two separate experiments, AIT-082 was administered intraperitoneally to adult mice (5-7 per group) at 0.01-100 mg/kg. Saline was given as a negative control. Starting two hours after AIT-082 administration, animals received four intraperitoneal injections of bromodeoxyuridine (BrdU; 50 mg/kg each) at 3 hr intervals. BrdU is a thymidine analogue that is incorporated into DNA during synthesis and thus labels newly formed cells. Animals were perfused at 24 hr after the AIT-082 administration. This treatment regimen is outlined in FIG. 1.
Animals were perfused transcardially with 50 mL ice-cold phosphate buffered saline (PBS) and then 100 mL of 4% paraformaldehyde in PBS. Brains were removed, post-fixed in 4% paraformaldehyde for 24 hr at 4° C., and then transferred to 30% sucrose at 4° C. for a minimum of 3 days before sectioning. Coronal sections (40 μm) were prepared using a freezing microtome and stored in cryoprotectant at −20° C. before immunostaining for BrdU.
Every sixth section through the rostral-caudal extent of the hippocampus was immunostained for BrdU with mouse anti-BrdU paired with a biotinylated goat anti-mouse IgG. Avidin-biotin-horseradish peroxidase (HRP) complex was applied to sections and immunoreactivity visualized by reacting diaminobenzidine with the HRP. Stereological techniques were used to estimate the total number of BrdU-positive cells in the dentate gyrus.

O=C(CCn1cnc2c(=O)[nH]cnc21)Nc1ccc(C(=O)O)cc1 [AIT-082, N-4-[[3-(6-oxo-1,6-dihydropurin-9-yl)-1-oxopropyl]amino] benzoic acid]
number of BrdU-positive cells in dentate gyrus ([1]; single intraperitoneal dose 1 or 10 mg/kg, perfused at 42 days (FIG. 5A)): increase
number of new neurons formed in the dentate gyrus (BrdU- and NeuN-positive cells) ([1]; single intraperitoneal dose, perfused at 42 days (FIG. 5B)): significant increase
total number of BrdU-positive cells in dentate gyrus [2]: statistically significant increase
